Source: patent publication US8178077B2, “Drug development target protein and target gene, and method of screening” (Reverse Proteomics Research Institute Co., Ltd., priority 2004, dated 2012)

Tests used:
[1] = target: T1, FLJ39196 clone-derived protein (human neurocalcin δ) (Homo sapiens, UniProt P61601); assay: SEC/MS interaction analysis (size exclusion spin column and mass analysis) with FLJ39196 clone-derived protein; type: binding
T1 construct: A human full-length cDNA clone was expressed as a protein with an N-terminal His tag; His tag (N); made in house; host or cells: Escherichia coli BL21star(DE3)pLysS (pDEST17 Gateway expression plasmid)
Method in brief: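 Unmodified, non-immobilized protein was mixed with compound and separated by size exclusion on 384-well Unifilter 100 spin columns packed with 10 μL Bio-Gel P6. The protein-fraction filtrate was collected in 50% acetonitrile, deproteinized, concentrated, redissolved in 10 μL of 50% methanol, and 2 μL was injected for ESI mass analysis of compound spectral intensity.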

[2] = target: T2, FLJ20589 clone-derived protein (human hippocalcin-like protein 1, VILIP-3) (Homo sapiens, UniProt P37235); assay: SEC/MS interaction analysis (size exclusion spin column and mass analysis) with FLJ20589 clone-derived protein; type: binding
T2 construct: A human full-length cDNA clone was expressed as a protein with an N-terminal His tag; His tag (N); made in house; host or cells: Escherichia coli BL21star(DE3)pLysS (pDEST17 Gateway expression plasmid)

[3] = protein 0 μM (protein-free reference), compound 1 μM
[4] = protein 0 μM (protein-free reference), compound 10 μM
[5] = protein 0 μM (protein-free reference), compound 100 μM
[6] = protein 0 μM (protein-free reference), compound 250 μM
[7] = protein 23.75 μM, compound 1 μM
[8] = protein 23.75 μM, compound 10 μM
[9] = protein 23.75 μM, compound 100 μM
[10] = protein 23.75 μM, compound 250 μM
[11] = protein 47.5 μM, compound 10 μM
[12] = protein 47.5 μM, compound 100 μM
[13] = protein 47.5 μM, compound 250 μM

c1ccc(-c2ccc(C(c3ccccc3)n3ccnc3)cc2)cc1 (stereo not drawn) [Bifonazole]
spectral intensity of the compound in the SEC spin column filtrate (protein fraction) [1, 3]: 32068857
spectral intensity of the compound in the SEC spin column filtrate (protein fraction) [1, 4]: 34579053
spectral intensity of the compound in the SEC spin column filtrate (protein fraction) [1, 5]: 30705006
spectral intensity of the compound in the SEC spin column filtrate (protein fraction) [1, 6]: 32278650
spectral intensity of the compound in the SEC spin column filtrate (protein fraction) [1, 7]: 27516354
spectral intensity of the compound in the SEC spin column filtrate (protein fraction) [1, 8]: 30253800
spectral intensity of the compound in the SEC spin column filtrate (protein fraction) [1, 9]: 60323012
spectral intensity of the compound in the SEC spin column filtrate (protein fraction) [1, 10]: 85169446
spectral intensity of the compound in the SEC spin column filtrate (protein fraction) ([1]; protein 47.5 μM, compound 1 μM): 33844567
spectral intensity of the compound in the SEC spin column filtrate (protein fraction) [1, 11]: 38342358
spectral intensity of the compound in the SEC spin column filtrate (protein fraction) [1, 12]: 152159135
spectral intensity of the compound in the SEC spin column filtrate (protein fraction) [1, 13]: 322219706
spectral intensity of the compound in the SEC spin column filtrate (protein fraction) [2, 3]: 2704636
spectral intensity of the compound in the SEC spin column filtrate (protein fraction) [2, 4]: 2935358
spectral intensity of the compound in the SEC spin column filtrate (protein fraction) [2, 5]: 2558136
spectral intensity of the compound in the SEC spin column filtrate (protein fraction) [2, 6]: 3779926
spectral intensity of the compound in the SEC spin column filtrate (protein fraction) [2, 7]: 2343078
spectral intensity of the compound in the SEC spin column filtrate (protein fraction) [2, 8]: 2189489
spectral intensity of the compound in the SEC spin column filtrate (protein fraction) [2, 9]: 3826699
spectral intensity of the compound in the SEC spin column filtrate (protein fraction) [2, 10]: 3607174
spectral intensity of the compound in the SEC spin column filtrate (protein fraction) ([2]; protein 47.5 μM, compound 1 μM): 1367901
spectral intensity of the compound in the SEC spin column filtrate (protein fraction) [2, 11]: 2513645
spectral intensity of the compound in the SEC spin column filtrate (protein fraction) [2, 12]: 8024232
spectral intensity of the compound in the SEC spin column filtrate (protein fraction) [2, 13]: 28949362

CN1CCN(CCCN2c3ccccc3Sc3ccc(C(F)(F)F)cc32)CC1 [Trifluoperazine]
spectral intensity of the compound in the SEC spin column filtrate (protein fraction) [1, 3]: 6645734
spectral intensity of the compound in the SEC spin column filtrate (protein fraction) [1, 4]: 7904072
spectral intensity of the compound in the SEC spin column filtrate (protein fraction) [1, 5]: 204390563
spectral intensity of the compound in the SEC spin column filtrate (protein fraction) [1, 6]: 632906281
spectral intensity of the compound in the SEC spin column filtrate (protein fraction) [1, 7]: 7580781
spectral intensity of the compound in the SEC spin column filtrate (protein fraction) [1, 8]: 40058178
spectral intensity of the compound in the SEC spin column filtrate (protein fraction) [1, 9]: 293702761
spectral intensity of the compound in the SEC spin column filtrate (protein fraction) [1, 10]: 1292987653
spectral intensity of the compound in the SEC spin column filtrate (protein fraction) ([1]; protein 47.5 μM, compound 1 μM): 7231665
spectral intensity of the compound in the SEC spin column filtrate (protein fraction) [1, 11]: 14142338
spectral intensity of the compound in the SEC spin column filtrate (protein fraction) [1, 12]: 5846308
spectral intensity of the compound in the SEC spin column filtrate (protein fraction) [1, 13]: 2293500744
spectral intensity of the compound in the SEC spin column filtrate (protein fraction) [2, 3]: 1499445
spectral intensity of the compound in the SEC spin column filtrate (protein fraction) [2, 4]: 1420853
spectral intensity of the compound in the SEC spin column filtrate (protein fraction) [2, 5]: 2266965
spectral intensity of the compound in the SEC spin column filtrate (protein fraction) [2, 6]: 4146130
spectral intensity of the compound in the SEC spin column filtrate (protein fraction) [2, 7]: 469062
spectral intensity of the compound in the SEC spin column filtrate (protein fraction) [2, 8]: 893634
spectral intensity of the compound in the SEC spin column filtrate (protein fraction) [2, 9]: 41947038
spectral intensity of the compound in the SEC spin column filtrate (protein fraction) [2, 10]: 57062370
spectral intensity of the compound in the SEC spin column filtrate (protein fraction) ([2]; protein 47.5 μM, compound 1 μM): 459554
spectral intensity of the compound in the SEC spin column filtrate (protein fraction) [2, 11]: 2953415
spectral intensity of the compound in the SEC spin column filtrate (protein fraction) [2, 12]: 67433540
spectral intensity of the compound in the SEC spin column filtrate (protein fraction) [2, 13]: 116228047

O=C1CN=C(c2ccccc2)c2cc(Cl)ccc2N1CC1CC1 [prazepam]
spectral intensity of the compound in the SEC spin column filtrate (protein fraction) [1, 3]: 45379226
spectral intensity of the compound in the SEC spin column filtrate (protein fraction) [1, 4]: 21988256
spectral intensity of the compound in the SEC spin column filtrate (protein fraction) [1, 5]: 130413200
spectral intensity of the compound in the SEC spin column filtrate (protein fraction) [1, 6]: 139016191
spectral intensity of the compound in the SEC spin column filtrate (protein fraction) [1, 7]: 38417587
spectral intensity of the compound in the SEC spin column filtrate (protein fraction) [1, 8]: 46660512
spectral intensity of the compound in the SEC spin column filtrate (protein fraction) [1, 9]: 258681345
spectral intensity of the compound in the SEC spin column filtrate (protein fraction) [1, 10]: 517983224
spectral intensity of the compound in the SEC spin column filtrate (protein fraction) ([1]; protein 47.5 μM, compound 1 μM): 26479402
spectral intensity of the compound in the SEC spin column filtrate (protein fraction) [1, 11]: 67670753
spectral intensity of the compound in the SEC spin column filtrate (protein fraction) [1, 12]: 264065408
spectral intensity of the compound in the SEC spin column filtrate (protein fraction) [1, 13]: 706383483
spectral intensity of the compound in the SEC spin column filtrate (protein fraction) [2, 3]: 563508
spectral intensity of the compound in the SEC spin column filtrate (protein fraction) [2, 4]: 752185
spectral intensity of the compound in the SEC spin column filtrate (protein fraction) [2, 5]: 5911478
spectral intensity of the compound in the SEC spin column filtrate (protein fraction) [2, 6]: 8158416
spectral intensity of the compound in the SEC spin column filtrate (protein fraction) [2, 7]: 372254
spectral intensity of the compound in the SEC spin column filtrate (protein fraction) [2, 8]: 1912944
spectral intensity of the compound in the SEC spin column filtrate (protein fraction) [2, 9]: 27662748
spectral intensity of the compound in the SEC spin column filtrate (protein fraction) [2, 10]: 53037838
spectral intensity of the compound in the SEC spin column filtrate (protein fraction) ([2]; protein 47.5 μM, compound 1 μM): 603084
spectral intensity of the compound in the SEC spin column filtrate (protein fraction) [2, 11]: 8279573
spectral intensity of the compound in the SEC spin column filtrate (protein fraction) [2, 12]: 67316791
spectral intensity of the compound in the SEC spin column filtrate (protein fraction) [2, 13]: 87274751
